Data taken from ChEMBL document CHEMBL5724914, “Linking interpersonal differences in gut microbiota composition and drug biotransformation activity” (2024).

Columns and labels:
[1] = (§1) The drug is tested on Z-004 corresponding to metagenome with ENA study accession number: PRJEB37062 and ENA sample accession number: ERS12561804 for biotransformation under anaerobic condition. The drug concentrations were measured over 9 timepoints collected between 0 and 24 hours of incubation by liquid-chromatography-coupled mass spectrometry (LC–MS); conditions: 2 µM
[2] = human gut metagenome, 24 h, 2 µM
[3] = human gut metagenome, 24 h, 2 µM; remark: listed apart in the source
[4] = (§2) The drug is tested on Z-011 corresponding to mouse gut metagenome with ENA study accession number: PRJEB37062 and ENA sample accession number: ERS12561811 for biotransformation under anaerobic condition. The drug concentrations were measured over 9 timepoints collected between 0 and 24 hours of incubation by liquid-chromatography-coupled mass spectrometry (LC–MS); conditions: 2 µM
[5] = as §2, with “WLS-310” for “Z-011”, “human” for “mouse”, “ERS12561785” for “ERS12561811”; conditions: 2 µM
[6] = human gut metagenome, 24 h, 2 µM; remark: listed apart in the source
[7] = as §2, with “WLS-038” for “Z-011”, “human” for “mouse”, “ERS12561745” for “ERS12561811”; conditions: 2 µM
[8] = as §2, with “Z-025” for “Z-011”, “rabbit” for “mouse”, “ERS12561824” for “ERS12561811”; conditions: 2 µM
[9] = human gut metagenome, 24 h, 2 µM; remark: listed apart in the source
[10] = human gut metagenome, 24 h, 2 µM; remark: listed apart in the source
[11] = as §2, with “Z-006” for “Z-011”, “ERS12561806” for “ERS12561811”; conditions: 2 µM
[12] = as §2, with “Z-028” for “Z-011”, “ERS12561827” for “ERS12561811”; conditions: 2 µM
[13] = as §2, with “Z-013” for “Z-011”, “rabbit” for “mouse”, “ERS12561813” for “ERS12561811”; conditions: 2 µM
[14] = human gut metagenome, 24 h, 2 µM; remark: listed apart in the source
[15] = as §2, with “Z-017” for “Z-011”, “ERS12561816” for “ERS12561811”; conditions: 2 µM
[16] = as §2, with “WLS-086” for “Z-011”, “human” for “mouse”, “ERS12561752” for “ERS12561811”; conditions: 2 µM
[17] = as §2, with “Z-022” for “Z-011”, “ERS12561821” for “ERS12561811”; conditions: 2 µM
[18] = as §2, with “WLS-240” for “Z-011”, “human” for “mouse”, “ERS12561773” for “ERS12561811”; conditions: 2 µM
[19] = as §1, with “Z-012” for “Z-004”, “ERS12561812” for “ERS12561804”; conditions: 2 µM
[20] = human gut metagenome, 24 h, 2 µM; remark: listed apart in the source
Note: call rule not given here.

Row | SMILES | Bacterial Biotransformation [1] | Bacterial Biotransformation [2] | Bacterial Biotransformation [3] | Bacterial Biotransformation [4] | Bacterial Biotransformation [5] | Bacterial Biotransformation [6] | Bacterial Biotransformation [7] | Bacterial Biotransformation [8] | Bacterial Biotransformation [9] | Bacterial Biotransformation [10] | Bacterial Biotransformation [11] | Bacterial Biotransformation [12] | Bacterial Biotransformation [13] | Bacterial Biotransformation [14] | Bacterial Biotransformation [15] | Bacterial Biotransformation [16] | Bacterial Biotransformation [17] | Bacterial Biotransformation [18] | Bacterial Biotransformation [19] | Bacterial Biotransformation [20]
1 | CC12CC3CC(C)(C1)CC(N)(C3)C2 [MEMANTINE] | Compound NOT metabolized | Compound NOT metabolized | Compound NOT metabolized | Compound NOT metabolized | Compound NOT metabolized | Compound NOT metabolized | Compound NOT metabolized | Compound NOT metabolized | Compound NOT metabolized | Compound NOT metabolized | Compound NOT metabolized | Compound NOT metabolized | Compound NOT metabolized | Compound NOT metabolized | Compound NOT metabolized | Compound NOT metabolized | Compound metabolized | Compound NOT metabolized | Compound NOT metabolized | Compound NOT metabolized
2 | C=C[C@H]1CN2CC[C@H]1C[C@H]2[C@H](O)c1ccnc2ccc(OC)cc12.C=C[C@H]1CN2CC[C@H]1C[C@H]2[C@H](O)c1ccnc2ccc(OC)cc12.O.O.O=S(=O)(O)O [QUININE SULFATE] | Compound NOT metabolized | Compound metabolized | Compound metabolized | Compound NOT metabolized | Compound metabolized | Compound metabolized | Compound NOT metabolized | Compound NOT metabolized | Compound metabolized | Compound NOT metabolized | Compound NOT metabolized | Compound NOT metabolized | Compound NOT metabolized | Compound NOT metabolized | Compound NOT metabolized | Compound metabolized | Compound NOT metabolized | Compound metabolized | Compound NOT metabolized | Compound metabolized
3 | O=C(CCCN1CCC2(CC1)C(=O)NCN2c1ccccc1)c1ccc(F)cc1 [SPIPERONE] | Compound NOT metabolized | Compound NOT metabolized | Compound metabolized | Compound NOT metabolized | Compound metabolized | Compound metabolized | Compound NOT metabolized | Compound NOT metabolized | Compound NOT metabolized | Compound NOT metabolized | Compound NOT metabolized | Compound NOT metabolized | Compound NOT metabolized | Compound NOT metabolized | Compound NOT metabolized | Compound metabolized | Compound NOT metabolized | Compound NOT metabolized | Compound NOT metabolized | Compound metabolized
4 | CC(=O)OCC(CCn1cnc2cnc(N)nc21)COC(C)=O [FAMCICLOVIR] | Compound NOT metabolized | Compound metabolized | Compound metabolized | Compound metabolized | Compound metabolized | Compound metabolized | Compound metabolized | Compound metabolized | Compound metabolized | Compound metabolized | Compound metabolized | Compound metabolized | Compound NOT metabolized | Compound metabolized | Compound metabolized | Compound metabolized | Compound NOT metabolized | Compound metabolized | Compound NOT metabolized | Compound metabolized
5 | CCc1cccc2c3c([nH]c12)C(CC)(CC(=O)O)OCC3 (stereo not given) [ETODOLAC] | Compound NOT metabolized | Compound metabolized | Compound metabolized | Compound NOT metabolized | Compound metabolized | Compound metabolized | Compound metabolized | Compound NOT metabolized | Compound NOT metabolized | Compound NOT metabolized | Compound NOT metabolized | Compound NOT metabolized | Compound NOT metabolized | Compound NOT metabolized | Compound NOT metabolized | Compound metabolized | Compound NOT metabolized | Compound metabolized | Compound NOT metabolized | Compound metabolized
6 | CCCC(C)(COC(N)=O)COC(=O)NC(C)C (stereo not given) [CARISOPRODOL] | Compound metabolized | Compound metabolized | Compound NOT metabolized | Compound metabolized | Compound NOT metabolized | Compound NOT metabolized | Compound metabolized | Compound metabolized | Compound metabolized | Compound metabolized | Compound metabolized | Compound metabolized | Compound NOT metabolized | Compound NOT metabolized | Compound NOT metabolized | Compound metabolized | Compound metabolized | Compound metabolized | Compound metabolized | Compound NOT metabolized
7 | COc1ccc(C(CN(C)C)C2(O)CCCCC2)cc1 (stereo not given) [VENLAFAXINE] | Compound NOT metabolized | Compound NOT metabolized | Compound NOT metabolized | Compound NOT metabolized | Compound metabolized | Compound NOT metabolized | Compound NOT metabolized | Compound NOT metabolized | Compound NOT metabolized | Compound NOT metabolized | Compound NOT metabolized | Compound NOT metabolized | Compound NOT metabolized | Compound NOT metabolized | Compound NOT metabolized | Compound NOT metabolized | Compound NOT metabolized | Compound metabolized | Compound NOT metabolized | Compound NOT metabolized
